Assay results reported in ChEMBL document CHEMBL1201862, “PubChem BioAssay data set” (2004).
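Cultured in 96-well plates, cells were exposed to test compound for 48 hours across five concentrations. At the GI50, growth is halved.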 The source made the active and inactive calls. Rule as the data show it: active = GI50 up to about 1.1 µM and inactive = higher.

Tests used:
Assay in all cases: NCI tumour cell line growth inhibition, 48 h
[1] = test system: KM12
[2] = test system: SN12C
[3] = test system: Hs-578T
[4] = test system: NCI-H23
[5] = test system: OVCAR-4
[6] = test system: A498
[7] = test system: ACHN
[8] = test system: SNB-75
[9] = test system: 786-0
[10] = test system: SK-OV-3
[11] = test system: CAKI-1
[12] = test system: BT-549
[13] = test system: Malme-3M
[14] = test system: EKVX
[15] = test system: UO-31
[16] = test system: HL-60
[17] = test system: CCRF-CEM
[18] = test system: RPMI-8226
[19] = test system: SR

Measured: GI50

O=C(O)CNc1ccc(C(=O)O)cc1
inactive: [1] > 100 µM | [2] > 100 µM | [3] > 100 µM | [4] > 100 µM | [5] > 100 µM | [6] > 100 µM | [7] > 100 µM | [8] > 100 µM | [9] > 100 µM | [10] > 100 µM | [11] > 100 µM | [12] > 100 µM | [13] > 100 µM | [14] > 100 µM | [15] > 100 µM | [16] 2.85 µM | [17] > 100 µM | [18] > 100 µM

COc1ccc(-c2nc3ccccc3s2)cc1OC
inactive: [1] 30.2 µM | [2] 83.6 µM | [3] 13.4 µM | [4] 42.4 µM | [5] 46.6 µM | [7] 40.4 µM | [8] > 100 µM | [9] 44.6 µM | [10] 15.5 µM | [12] 15.4 µM | [15] 41.7 µM | [16] > 100 µM | [17] 76.9 µM | [18] 22.7 µM | [19] > 100 µM

O=C(O)CCC(=O)OC1N=C(c2ccccc2Cl)c2cc([N+](=O)[O-])ccc2NC1=O (centres undefined)
inactive: [1] 40.7 µM | [2] 46.5 µM | [3] > 100 µM | [4] > 100 µM | [5] 42.2 µM | [6] > 100 µM | [7] 57.8 µM | [8] 38.1 µM | [9] 42.1 µM | [10] > 100 µM | [11] > 100 µM | [12] 89.1 µM | [13] > 100 µM | [14] > 100 µM | [15] 44.6 µM | [16] 38.5 µM | [17] 26.3 µM

COC(=O)C1CC23C4=C(CCC41)CCC1CN4CC(C)C(CC(OC(C)=O)C12COC(C)=O)C43O (centres undefined)
inactive: [1] > 100 µM | [2] > 100 µM | [3] > 100 µM | [4] > 100 µM | [5] > 100 µM | [6] > 100 µM | [7] > 100 µM | [8] > 100 µM | [9] > 100 µM | [10] > 100 µM | [11] > 100 µM | [12] > 100 µM | [13] > 100 µM | [14] > 100 µM | [15] > 100 µM | [16] > 100 µM | [17] > 100 µM | [18] > 100 µM

Cc1cccc2c(N)c3cccc(C(=O)NCC[N+](C)(C)Cc4sc(N5CCOCC5)nc4[N+](=O)[O-])c3nc12
active: [3] 0.748 µM | [7] 0.381 µM | [9] 0.547 µM | [11] 0.344 µM | [16] 0.071 µM | [17] 0.217 µM
inactive: [1] 2.43 µM | [2] 1.65 µM | [4] 2.26 µM | [5] 4.11 µM | [6] 11.4 µM | [8] 5.86 µM | [10] 1.82 µM | [12] 13.1 µM | [13] 5.93 µM | [14] 4.26 µM | [15] 4.17 µM | [18] 3.13 µM

C[N+]1(C)CC=C(N2CCOCC2)CC1
inactive: [1] > 10 µM | [2] > 10 µM | [3] > 10 µM | [4] > 10 µM | [5] > 10 µM | [6] > 10 µM | [7] > 10 µM | [8] > 10 µM | [9] > 10 µM | [10] > 10 µM | [11] > 10 µM | [13] > 10 µM | [14] > 10 µM | [15] > 10 µM | [16] > 10 µM | [17] > 10 µM | [18] > 10 µM | [19] > 10 µM

C=CCN1CCC(O)(c2cc(C(=O)OCC)[nH]c2-c2cc(C)no2)C1 (centres undefined)
inactive: [1] > 100 µM | [2] > 100 µM | [4] > 100 µM | [5] > 100 µM | [6] > 100 µM | [7] > 100 µM | [8] > 100 µM | [9] > 100 µM | [10] > 100 µM | [11] > 100 µM | [12] > 100 µM | [13] > 100 µM | [14] > 100 µM | [15] > 100 µM | [16] > 100 µM | [17] > 100 µM | [18] > 100 µM

Cc1ccc(C(=O)Nc2ccc(CP(=O)(O)O)cc2)cc1NC(=O)c1cccc(NC(=O)Nc2cccc(C(=O)Nc3cc(C(=O)Nc4ccc(CP(=O)(O)O)cc4)ccc3C)c2)c1
inactive: [1] > 100 µM | [2] > 100 µM | [3] > 100 µM | [4] > 100 µM | [5] > 100 µM | [6] > 100 µM | [7] > 100 µM | [8] > 100 µM | [9] > 100 µM | [10] > 100 µM | [11] > 100 µM | [12] > 100 µM | [13] > 100 µM | [14] > 100 µM | [15] > 100 µM | [16] > 100 µM | [17] > 100 µM | [18] > 100 µM

N#CC(Cc1ccccc1)N(CCC1=CCCCC1)C(c1ccccc1)c1ccccc1 (centres undefined)
active: [17] 0.456 µM
inactive: [1] > 100 µM | [3] 69.3 µM | [4] 60.1 µM | [5] > 100 µM | [6] > 100 µM | [7] > 100 µM | [8] > 100 µM | [9] > 100 µM | [10] > 100 µM | [11] > 100 µM | [12] > 100 µM | [13] > 100 µM | [14] 35.7 µM | [15] 50.6 µM | [18] 33.3 µM

N=C1N(/N=C/c2ccccn2)/C(=N\c2ccccc2)C(=S)N1c1ccccc1
inactive: [1] 4.01 µM | [2] 5.31 µM | [3] 11.5 µM | [4] 6.07 µM | [5] 11.7 µM | [6] 19.4 µM | [7] 2.55 µM | [8] 15.3 µM | [9] 2.94 µM | [10] 16.6 µM | [11] 6.44 µM | [13] 10.9 µM | [14] 3.41 µM | [15] 4.37 µM | [16] 1.85 µM | [17] 2.05 µM | [18] > 100 µM | [19] > 100 µM

S=C(Nc1cccc(Cl)c1)Nc1ccccn1
inactive: [1] 13.5 µM | [2] > 100 µM | [3] > 100 µM | [5] > 100 µM | [8] 1.14 µM | [9] > 100 µM | [10] > 100 µM | [11] > 100 µM | [12] > 100 µM | [13] 27.6 µM | [14] 82 µM | [15] > 100 µM | [16] > 100 µM | [17] > 100 µM | [18] > 100 µM | [19] > 100 µM

CC1CC(=O)N(N(C)C)C2(C#N)C(=O)N=C(N)C12C#N (centres undefined)
inactive: [1] > 100 µM | [2] > 100 µM | [3] > 100 µM | [4] > 100 µM | [5] > 100 µM | [6] > 100 µM | [7] > 100 µM | [8] > 100 µM | [9] > 100 µM | [10] > 100 µM | [11] 23.4 µM | [13] > 100 µM | [14] > 100 µM | [15] > 100 µM | [16] 19.3 µM | [17] 23.2 µM | [18] 35.4 µM | [19] > 100 µM

Cc1c2c(nc3ccccc13)C(=O)c1cccnc1C2=O
inactive: [1] 14.9 µM | [2] 5.79 µM | [3] 33.5 µM | [4] 6.46 µM | [5] 56.2 µM | [7] 10.6 µM | [8] 11.1 µM | [9] 33.3 µM | [10] > 100 µM | [12] 61.8 µM | [13] 1.29 µM | [14] 20 µM | [15] 15.2 µM | [16] 15.1 µM | [17] 22.4 µM | [18] 17 µM | [19] 6.5 µM

CCN1/C(=C/C#C/C(C)=C\c2sc3ccc(Cl)cc3[n+]2CC)Sc2ccc(Cl)cc21
inactive: [1] 3.1 µM | [2] 3.57 µM | [3] 4.72 µM | [5] 6.53 µM | [7] 3.38 µM | [8] 2.61 µM | [9] 3.1 µM | [10] 5.55 µM | [11] 2.82 µM | [12] 2.14 µM | [13] 1.85 µM | [14] 4.25 µM | [15] 3.85 µM | [18] 1.67 µM
active: [17] 0.389 µM | [19] 0.668 µM

Cn1ccnc1SC(F)(F)c1nc2ccccc2o1
inactive: [1] > 100 µM | [2] > 100 µM | [3] > 100 µM | [4] > 100 µM | [5] > 100 µM | [6] > 100 µM | [7] > 100 µM | [9] > 100 µM | [10] > 100 µM | [11] > 100 µM | [12] 46.5 µM | [13] > 100 µM | [15] > 100 µM | [17] > 100 µM | [18] > 100 µM
active: [8] 0.043 µM

CCC1C(=O)OCc2c1cc1n(c2=O)Cc2cc3ccccc3nc2-1 (centres undefined)
active: [17] 0.377 µM
inactive: [1] 50.9 µM | [2] 5.07 µM | [3] > 54.3 µM | [4] 2.84 µM | [5] > 81.8 µM | [6] 10.7 µM | [7] 3.28 µM | [8] 1.96 µM | [9] 3.23 µM | [10] 43.6 µM | [11] 2.17 µM | [12] 4.38 µM | [13] 60.3 µM | [14] 77.6 µM | [15] 2.37 µM | [16] 1.88 µM | [18] 12.4 µM
